Results on six compounds are retold here after article PMC9088073, “Discovery of 2-Phenylquinolines with Broad-Spectrum Anti-coronavirus Activity” (ACS Medicinal Chemistry Letters, 2022).

In series [1] the test system is autophagy (LC3-II puncta) in VeroE6 cells. Nature of the series: Autophagy inhibition assay, LC3-II immunofluorescence in VeroE6 cells. The following applies: for effect on autophagy (LC3-II accumulation), in words: 10 μM, 4 h, compared to CQ. It is filed as cell-based.
Series [2] in a line: in vitro. The following applies: chlorocebus sabaeus.
The subject of series [3] is SARS-CoV-2. As to the kind of experiment: microbe, parasite or virus in culture. The format is cell-based. To be noted: […], mean ± SD of duplicate experiments; for EC50: Severe acute respiratory syndrome coronavirus 2, read-out: Anti-SARS-CoV-2 activity EC50.
Series [4] relates to VeroE6 cells. The following applies: uninfected VeroE6 cells, MTS assay; mean ± SD of duplicate experiments. (Tetrazolium dyes change colour on reduction, which living cells bring about.)
Series [5] in a line: in vitro. To be noted: human.
The test system of series [6] is HCoV-OC43. Nature of the series: microbe, parasite or virus in culture. To be noted: Betacoronavirus 1, OC43, HEL 299, read-out: HCoV-OC43 EC50. The format is cell-based.
For series [7], the target named is SARS-CoV-2 nsp13 helicase (Severe acute respiratory syndrome coronavirus 2, UniProt P0DTD1). Nature of the series: biochemical. The format is biochemical. The following applies: for IC50: SARS-CoV-2 nsp13 helicase-associated activity, read-out: helicase unwinding IC50.
Series [8] addresses SARS-CoV-2 nsp13 ATPase (Severe acute respiratory syndrome coronavirus 2, UniProt P0DTD1). The format is biochemical. To be noted: for IC50: SARS-CoV-2 nsp13 ATPase-associated activity, read-out: helicase ATPase IC50; for helicase ATPase percentage of control: in the presence of the highest concentration of tested compound (30 μM; 3 μM for SSYA10-001).
Series [9] deals with SARS-CoV-2 nsp12 RdRp (Severe acute respiratory syndrome coronavirus 2, UniProt P0DTD1). Nature of the series: SARS-CoV-2 nsp12 RdRp activity, fluorescent-based assay. The following applies: in the presence of the highest concentration of tested compound (30 μM); read-out: RdRp percentage of control. It is filed as biochemical.
The subject of series [10] is HCoV-229E. Nature of the series: microbe, parasite or virus in culture. The format is cell-based. The following applies: Human coronavirus 229E, HEL 299, read-out: HCoV-229E EC50.

Consider `CCCOc1ccc(-c2cc(OCCN3CCc4cc(OC)c(OC)cc4C3)c3cc(OC)cc(OC)c3n2)cc1` [Compound 9g], for which the “effect on autophagy (LC3-II accumulation), in words” value in series [1] was “minimal effect on the autophagy”. This compound also yielded a CC50 in series [2] above 100 µM. Further, in series [3], the EC50 – broadly, the concentration needed to bring the measured effect to its halfway point – is above 100 µM and the “Anti-SARS-CoV-2 activity EC50” value is “devoid of antiviral activity”.
As to `CCCOc1ccc(-c2cc(OCCN3CCN(Cc4ccccc4)CC3)c3cccc(OC)c3n2)cc1` [Compound 5f], the melting point (commonly the temperature, or range, at which the solid turns liquid) was 95 to 97 °C. Besides, in series [4], the “VeroE6 cells CC50” value is on record as “lacked cytotoxicity”. In series [2], the CC50 was above 100 µM. The half-maximal effective concentration (EC50) in series [3] worked out at 35.9 ± 32.2 µM.
For the compound `CCCOc1ccc(-c2cc(OCCN3CCc4cc(OC)c(OC)cc4C3)c3cccc(OC)c3n2)cc1` [Compound 5g], in series [1], the “effect on autophagy (LC3-II accumulation), in words” value was “minimal effect on the autophagy”. This compound returned a CC50 in series [2] above 100 µM. Further, in series [3], the EC50 was above 100 µM and the “Anti-SARS-CoV-2 activity EC50” value was “devoid of antiviral activity”.
In the case of `CCN(CC)CCCC(C)Nc1ccnc2cc(Cl)ccc12` (stereo not drawn) [Chloroquine, chloroquine, reference compound], in series [1] (10 μM for 4 h), the “increase in the intensity of the cytoplasmic LC3 puncta” value was 9 fold. Besides, the CC50 in series [2] stood at 83.4 ± 4.2 µM; in series [5] it was 33.6 ± 1.3 µM. In series [6], the EC50 is below 0.8 µM.
As to `CCCOc1ccc(-c2cc(OCCN3CCN(Cc4ccccc4)CC3)c3c(OC)cc(OC)cc3n2)cc1` [Compound 6f], the “VeroE6 cells CC50” value in series [4] was “lacked cytotoxicity”. Further, the concentration for half-maximal inhibition (IC50) in series [7] and in series [8] was above 30 µM throughout. Also, the remaining activity at 30 µM in series [7] (in the presence of the highest concentration of tested compound (30 μM), read-out: helicase unwinding percentage of control) was 55%; in series [9] it was 100%. Further, the results for the CC50 in [2] and in series [5] were above 100 µM and 35.6 ± 0.2 µM, respectively. Moreover, the EC50 worked out at 7.9 ± 5.6 µM in [3], 1.9 ± 0.2 µM in [6] and 2.2 ± 0.7 µM in series [10]. The “helicase ATPase percentage of control” value in [8] worked out at 96%.
Consider `CCCOc1ccc(-c2cc(OCCN3CCCCC3)c3c(OC)ccc(OC)c3n2)cc1` [Compound 7k], for which the concentration for half-maximal inhibition (IC50) (in general, the concentration that inhibits the measured activity by half) is 1.41 ± 0.64 µM in [7] and above 30 µM in [8]. For the same compound, the CC50 in series [2] was 23.8 ± 5.7 µM; in series [5], 95.3 ± 3.3 µM. The half-maximal effective concentration (EC50) in [3] turned out to be 2.7 ± 1.9 µM; in [6], 7.7 ± 3.3 µM; in series [10], 9.4 ± 3.6 µM. In addition, the “helicase ATPase percentage of control” value in [8] is 100%. For the same compound, the remaining activity at 30 µM in series [9] is 100%.
